Counter-ions that a name gives are not always drawn.
Assay: hygroscopicity of the solid form
Format: physicochemical
Conditions: solid substance, amorphous free base versus crystalline p-toluene sulfonic acid salt

Row | hygroscopicity (listed as p-toluene sulfonic salt) | hygroscopicity | Structure (SMILES)
1 | only slightly hygroscopic | – | CC(=O)O[C@@H]1C[C@@H](CO)O[C@H]1n1c(=O)sc2cnc(N)nc21 [Formula (1), p-toluene sulfonic acid salt of 5-amino-3-(2′-O-acetyl-3′-deoxy-beta-D-ribofuranosyl)-3H-thiazolo[4,5-d]pyrimidin-2-one]
2 | – | hydroscopic | CC(=O)O[C@@H]1C[C@@H](CO)O[C@H]1n1c(=O)sc2cnc(N)nc21 [Formula 5, 5-amino-3-(2′-O-acetyl-3′-deoxy-beta-D-ribofuranosyl)-3H-thiazolo[4,5-d]pyrimidin-2-one]
